# ChEMBL document CHEMBL1201862, “PubChem BioAssay data set” (2004)
#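 Method: 48-hour compound exposure of cells in 96-well plates, five concentrations, linear interpolation of endpoints. GI50: concentration for 50% inhibition of growth.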 Active and inactive are the calls of the source. No stated cut-off is given here; in the data, active = GI50 up to about 1.1 µM and inactive = higher.
# Tests used:
# Experiment in all cases: DTP human tumour cell line panel, 48 h
# [1] = test system: 786-0
# [2] = test system: A498
# [3] = test system: ACHN
# [4] = test system: CCRF-CEM
# [5] = test system: COLO 205
# [6] = test system: DMS-114
# [7] = test system: HCT-116
# [8] = test system: HOP-62
# [9] = test system: HOP-92
# [10] = test system: HT-29
# [11] = test system: IGROV-1
# [12] = test system: K562
# [13] = test system: KM-20L2
# [14] = test system: KM12
# [15] = test system: LXFL 529
# [16] = test system: M14
# [17] = test system: M19-MEL
# [18] = test system: MOLT-4
# [19] = test system: Malme-3M
# [20] = test system: NCI-H23
# [21] = test system: NCI-H460
# [22] = test system: NCI-H522
# [23] = test system: OVCAR-3
# [24] = test system: OVCAR-4
# [25] = test system: OVCAR-5
# [26] = test system: RPMI-8226
# [27] = test system: RXF 393
# [28] = test system: SF-268
# [29] = test system: SF-295
# [30] = test system: SK-MEL-28
# [31] = test system: SK-MEL-2
# [32] = test system: SK-OV-3
# [33] = test system: SNB-19
# [34] = test system: SNB-75
# [35] = test system: SNB-78
# [36] = test system: SR
# [37] = test system: U-251
# [38] = test system: UACC-257
# [39] = test system: UACC-62
# [40] = test system: UO-31
# [41] = test system: A549
# [42] = test system: CAKI-1
# [43] = test system: DMS-273
# [44] = test system: EKVX
# [45] = test system: HCT-15
# [46] = test system: HL-60
# [47] = test system: LOX IMVI
# [48] = test system: NCI-H226
# [49] = test system: OVCAR-8
# [50] = test system: SF-539
# [51] = test system: SK-MEL-5
# [52] = test system: SN12C
# [53] = test system: SW-620
# [54] = test system: TK-10
# [55] = test system: DLD-1
# [56] = test system: HCC 2998
# [57] = test system: HOP-18
# [58] = test system: MCF7
# [59] = test system: NCI/ADR-RES
smiles,measurement,setting,value
COc1ccc2c(c1)CC[C@@H]1C2CC[C@]2(C)C(=O)N(N)C(=O)CC12 (some centres not stated),GI50,[1],> 100 µM (inactive)
same,GI50,[2],35.8 µM (inactive)
same,GI50,[3],> 100 µM (inactive)
same,GI50,[4],80 µM (inactive)
same,GI50,[5],> 100 µM (inactive)
same,GI50,[6],44.5 µM (inactive)
same,GI50,[7],> 100 µM (inactive)
same,GI50,[8],> 100 µM (inactive)
same,GI50,[9],> 100 µM (inactive)
same,GI50,[10],> 100 µM (inactive)
same,GI50,[11],> 100 µM (inactive)
same,GI50,[12],32.6 µM (inactive)
same,GI50,[13],32.9 µM (inactive)
same,GI50,[14],> 100 µM (inactive)
same,GI50,[15],52.6 µM (inactive)
same,GI50,[16],78.3 µM (inactive)
same,GI50,[17],> 100 µM (inactive)
same,GI50,[18],44.4 µM (inactive)
same,GI50,[19],> 100 µM (inactive)
same,GI50,[20],> 100 µM (inactive)
same,GI50,[21],37.2 µM (inactive)
same,GI50,[22],48.8 µM (inactive)
same,GI50,[23],> 100 µM (inactive)
same,GI50,[24],> 100 µM (inactive)
same,GI50,[25],> 100 µM (inactive)
same,GI50,[26],28.8 µM (inactive)
same,GI50,[27],> 10 µM (inactive)
same,GI50,[28],> 100 µM (inactive)
same,GI50,[29],> 100 µM (inactive)
same,GI50,[30],> 100 µM (inactive)
same,GI50,[31],> 100 µM (inactive)
same,GI50,[32],> 100 µM (inactive)
same,GI50,[33],> 100 µM (inactive)
same,GI50,[34],> 100 µM (inactive)
same,GI50,[35],77.4 µM (inactive)
same,GI50,[36],38 µM (inactive)
same,GI50,[37],> 100 µM (inactive)
same,GI50,[38],35.6 µM (inactive)
same,GI50,[39],80.9 µM (inactive)
same,GI50,[40],72.9 µM (inactive)
O=C1N[C@@H]2CCC[C@@H]2[C@@H]1c1ccc(Cl)cc1,GI50,[41],> 100 µM (inactive)
same,GI50,[42],> 100 µM (inactive)
same,GI50,[4],> 100 µM (inactive)
same,GI50,[5],> 100 µM (inactive)
same,GI50,[6],70 µM (inactive)
same,GI50,[43],> 100 µM (inactive)
same,GI50,[44],> 100 µM (inactive)
same,GI50,[45],> 100 µM
same,GI50,[46],> 100 µM (inactive)
same,GI50,[10],> 100 µM (inactive)
same,GI50,[11],> 100 µM (inactive)
same,GI50,[12],> 100 µM (inactive)
same,GI50,[14],> 100 µM (inactive)
same,GI50,[47],> 100 µM (inactive)
same,GI50,[16],> 100 µM (inactive)
same,GI50,[17],> 100 µM (inactive)
same,GI50,[18],> 100 µM (inactive)
same,GI50,[48],87.9 µM (inactive)
same,GI50,[20],> 100 µM (inactive)
same,GI50,[22],> 100 µM (inactive)
same,GI50,[23],> 100 µM (inactive)
same,GI50,[49],> 100 µM (inactive)
same,GI50,[26],> 100 µM (inactive)
same,GI50,[27],> 100 µM (inactive)
same,GI50,[28],> 100 µM (inactive)
same,GI50,[29],> 100 µM (inactive)
same,GI50,[50],> 100 µM (inactive)
same,GI50,[30],> 100 µM (inactive)
same,GI50,[51],> 100 µM (inactive)
same,GI50,[32],> 100 µM (inactive)
same,GI50,[52],> 100 µM (inactive)
same,GI50,[33],> 100 µM (inactive)
same,GI50,[34],> 100 µM (inactive)
same,GI50,[53],> 100 µM (inactive)
same,GI50,[54],> 100 µM (inactive)
same,GI50,[38],> 100 µM (inactive)
same,GI50,[39],> 100 µM (inactive)
same,GI50,[40],65.2 µM (inactive)
CCCn1cc2c3c(cccc31)C1C=C(C)CN(C)C1C2 (configuration not stated),GI50,[2],13.7 µM (inactive)
same,GI50,[41],34.5 µM (inactive)
same,GI50,[42],11.8 µM (inactive)
same,GI50,[4],3.67 µM (inactive)
same,GI50,[5],9.98 µM (inactive)
same,GI50,[55],20.7 µM (inactive)
same,GI50,[6],15.1 µM (inactive)
same,GI50,[43],13.3 µM (inactive)
same,GI50,[44],18 µM (inactive)
same,GI50,[56],15.2 µM (inactive)
same,GI50,[7],10.4 µM (inactive)
same,GI50,[45],17.4 µM
same,GI50,[46],1.51 µM (inactive)
same,GI50,[57],13.7 µM (inactive)
same,GI50,[8],31.7 µM (inactive)
same,GI50,[9],11.7 µM (inactive)
same,GI50,[10],12.9 µM (inactive)
same,GI50,[11],27 µM (inactive)
same,GI50,[12],2.56 µM (inactive)
same,GI50,[13],13 µM (inactive)
same,GI50,[14],24.2 µM (inactive)
same,GI50,[47],13.6 µM (inactive)
same,GI50,[58],9.71 µM (inactive)
same,GI50,[18],9.66 µM (inactive)
same,GI50,[19],18.7 µM (inactive)
same,GI50,[48],12.8 µM (inactive)
same,GI50,[20],25.5 µM (inactive)
same,GI50,[21],12 µM (inactive)
same,GI50,[22],20.7 µM (inactive)
same,GI50,[59],20.8 µM (inactive)
same,GI50,[23],20.4 µM (inactive)
same,GI50,[24],10.1 µM (inactive)
same,GI50,[25],25.2 µM (inactive)
same,GI50,[49],29.7 µM (inactive)
same,GI50,[26],6.61 µM (inactive)
same,GI50,[27],18.5 µM (inactive)
same,GI50,[28],29 µM (inactive)
same,GI50,[29],23.8 µM (inactive)
same,GI50,[50],25.6 µM (inactive)
same,GI50,[30],18.1 µM (inactive)
same,GI50,[31],29.1 µM (inactive)
same,GI50,[51],11.3 µM (inactive)
same,GI50,[32],37.3 µM (inactive)
same,GI50,[52],27.5 µM (inactive)
same,GI50,[33],27 µM (inactive)
same,GI50,[34],12 µM (inactive)
same,GI50,[35],30.3 µM (inactive)
same,GI50,[53],23.4 µM (inactive)
same,GI50,[37],19 µM (inactive)
same,GI50,[38],7.69 µM (inactive)
same,GI50,[39],23.4 µM (inactive)
same,GI50,[40],9.71 µM (inactive)
C=C(c1ccccc1)C1(O)CCCCC1N (configuration not stated),GI50,[1],> 100 µM (inactive)
same,GI50,[2],> 100 µM (inactive)
same,GI50,[41],> 100 µM (inactive)
same,GI50,[3],> 100 µM (inactive)
same,GI50,[42],> 43.2 µM (inactive)
same,GI50,[4],33.9 µM (inactive)
same,GI50,[5],> 100 µM (inactive)
same,GI50,[55],> 100 µM (inactive)
same,GI50,[6],> 100 µM (inactive)
same,GI50,[43],> 100 µM (inactive)
same,GI50,[44],> 100 µM (inactive)
same,GI50,[56],> 100 µM (inactive)
same,GI50,[7],> 100 µM (inactive)
same,GI50,[45],> 100 µM
same,GI50,[46],16.6 µM (inactive)
same,GI50,[57],> 100 µM (inactive)
same,GI50,[8],> 100 µM (inactive)
same,GI50,[9],> 100 µM (inactive)
same,GI50,[10],> 100 µM (inactive)
same,GI50,[11],> 100 µM (inactive)
same,GI50,[12],> 100 µM (inactive)
same,GI50,[13],> 100 µM (inactive)
same,GI50,[14],> 100 µM (inactive)
same,GI50,[47],> 100 µM (inactive)
same,GI50,[15],> 100 µM (inactive)
same,GI50,[16],> 100 µM (inactive)
same,GI50,[17],> 100 µM (inactive)
same,GI50,[18],31.8 µM (inactive)
same,GI50,[19],> 100 µM (inactive)
same,GI50,[48],> 100 µM (inactive)
same,GI50,[20],> 100 µM (inactive)
same,GI50,[21],> 100 µM (inactive)
same,GI50,[22],> 100 µM (inactive)
same,GI50,[23],> 89.5 µM (inactive)
same,GI50,[24],> 100 µM (inactive)
same,GI50,[25],> 100 µM (inactive)
same,GI50,[49],> 100 µM (inactive)
same,GI50,[26],50.7 µM (inactive)
same,GI50,[27],> 100 µM (inactive)
same,GI50,[28],> 100 µM (inactive)
same,GI50,[29],> 100 µM (inactive)
same,GI50,[50],> 100 µM (inactive)
same,GI50,[30],> 100 µM (inactive)
same,GI50,[31],> 100 µM (inactive)
same,GI50,[51],> 100 µM (inactive)
same,GI50,[32],> 100 µM (inactive)
same,GI50,[52],> 100 µM (inactive)
same,GI50,[33],> 100 µM (inactive)
same,GI50,[34],> 85.7 µM (inactive)
same,GI50,[35],> 100 µM (inactive)
same,GI50,[36],30.3 µM (inactive)
same,GI50,[53],> 100 µM (inactive)
same,GI50,[54],> 100 µM (inactive)
same,GI50,[37],> 100 µM (inactive)
same,GI50,[38],> 100 µM (inactive)
same,GI50,[39],> 100 µM (inactive)
same,GI50,[40],> 100 µM (inactive)
